Experimental data reported in article PMC3424241, “The Octadecaneuropeptide ODN Protects Astrocytes against Hydrogen Peroxide-Induced Apoptosis via a PKA/MAPK-Dependent Mechanism” (PLoS ONE, 2012).

Tests used:
[1] = tested on: Bcl-2; test: Bcl-2 mRNA level, quantitative RT-PCR; format: cell-based, rat; settings: ODN 0.1 nM
Method: (§1) Secondary cultures of rat cortical astrocytes were prepared as previously described [64]with minor modifications. Briefly, cerebral hemispheres from newborn Wistar rats were collected in DMEM/F12 (2∶1; v/v) culture medium supplemented with 2 mM L-glutamine, 1‰ insulin, 5 mM HEPES, 0.4% glucose and 1% of the antibiotic-antimycotic solution. The tissues were dissociated mechanically with a syringe equipped with a 1-mm gauge needle, and filtered through a 100-µm sieve (Falcon, Franklin Lakes, NJ, USA). Dissociated cells were resuspended in culture medium supplemented with 10% FBS, plated in 175-cm^2 flasks (Greiner Bio-one GmbH, Frickenhausen, Germany) and incubated at 37°C in a 5% CO2/[…] atmosphere. When cultures were confluent, astrocytes were isolated by shaking overnight the flasks on an orbital agitator. Adhesive cells were detached by trypsination and preplated for 5 min to discard contaminating microglial cells. Then, the non-adhering astrocytes were harvested and plated on 35-mm hydrophilic surface Petri dishes at a density of 3×10^5 cells/ml. […]
Cultured cells were incubated at 37°C for 1 h with fresh serum-free medium in the absence or presence of test substances. […] The amount of Bax and Bcl-2 cDNA in each sample was calculated by the comparative threshold cycle (Ct) method and expressed as 2^exp(−ΔΔCt) using glyceraldehyde-3-phosphate dehydrogenase as an internal control.

[2] = tested on: cultured rat astrocytes; test: Cell survival after H2O2, FDA fluorescence; format: cell-based
Method: Secondary cultures of rat cortical astrocytes were prepared as previously described [64]with minor modifications. Briefly, cerebral hemispheres from newborn Wistar rats were collected in DMEM/F12 (2∶1; v/v) culture medium supplemented with 2 mM L-glutamine, 1‰ insulin, 5 mM HEPES, 0.4% glucose and 1% of the antibiotic-antimycotic solution. The tissues were dissociated mechanically with a syringe equipped with a 1-mm gauge needle, and filtered through a 100-µm sieve (Falcon, Franklin Lakes, NJ, USA). […] When cultures were confluent, astrocytes were isolated by shaking overnight the flasks on an orbital agitator. Adhesive cells were detached by trypsination and preplated for 5 min to discard contaminating microglial cells. Then, the non-adhering astrocytes were harvested and plated on 35-mm hydrophilic surface Petri dishes at a density of 3×10^5 cells/ml. […] The cells were incubated at 37°C in a humid atmosphere (5% CO2). […] All experiments were performed on 5- to 7-day-old secondary cultures.
Cultured cells were incubated at 37°C with fresh serum-free culture medium in the absence or presence of H2O2 and/or ODN for 1 h. Cells were then incubated for 10 min at 37°C with 0.3 µg/ml calcein-AM (producing green fluorescence in living cells), rinsed twice with culture medium without probe and examined on an inverted microscope (Leica, Heidelberg, Germany) equipped with a double pass filter.
For quantification of surviving astrocytes, cells were incubated for 8 min with 15 µg/ml FDA-AM, rinsed twice with phosphate-buffered saline (PBS) and lysed with a Tris/HCl solution containing 1% sodium dodecyl sulfate (SDS). Fluorescence was measured with excitation at 485 nm and emission at 538 nm, using a microplate reader (Bio-Tek FLx 800).

[3] = tested on: cAMP formation in astroglial cells (adenylyl cyclase); test: cAMP production, radioimmunoassay; format: cell-based, rat; settings: ODN 10 pM; 0.1 mM IBMX, 10 min incubation; p<0.001
Method: as §1
Cultured cells were pre-incubated for 30 min in serum-free medium containing 0.1 mM IBMX to inhibit phosphodiesterases, and then incubated in the same solution, in the presence or absence of test substances. […] The concentration of cAMP was measured by using a cAMP RIA kit. […]

For “ODN: octadecaneuropeptide, endozepine derived from diazepam-binding inhibitor; endogenous ligand of central-type benzodiazepine and metabotropic receptors; synthesized by Fmoc procedure (QATVGDVNTDRPGLLDLK; Octadecaneuropeptide; UniProt P11030 34-51, looked up)”, the “effect on H2O2-induced inhibition of Bcl-2 expression” value ([1]; 10 min pre-incubation, 1 h 300 µM H2O2) was “suppressed the inhibitory effect of H2O2 on Bcl-2 expression”, the “effect on Bcl-2 mRNA levels, peptide alone” value ([1]; 1 h, RT-PCR, 6 wells from three cultures) was “induced an increase of Bcl-2 mRNA levels by itself” and the “time-course of protection against H2O2-induced cell injury” value ([2]; ODN 0.1 nM, 300 µM H2O2, FDA fluorescence) was “totally blocked H2O2-induced cell injury during the first 60 min”. The “duration of the protective effect with fresh doses of peptide” value ([2]; ODN 0.1 nM, refills of 0.1 nM after 30, 60, 90, 120 and 150 min, 300 µM H2O2) was ≥ 150 min, the “maximum effect (survival)” value ([2]; ODN 0.1 nM, 10 min pre-incubation, 1 h 300 µM H2O2, FDA fluorescence) was ~95% and the “time after onset of peptide administration at which the protective action vanished” value ([2]; single dose of ODN 0.1 nM, 300 µM H2O2) was 180 min. The “delay of H2O2-induced cell death” value ([2]; time-course, ODN 0.1 nM, 300 µM H2O2) was “approximately 1 h” and the “maximum stimulation of cAMP formation” value [3] was 179 % over control.
